Numbered stars: 1 amine (or outer) side, 2 acyl side, 3 side chain; on linkers, the order of the positions; unused ones are H or OH. Square brackets hold non-standard residues; d marks the D form. Side chains are listed from the residue outwards. Peptide text beside a SMILES is read from it. * marks the point of attachment. X14 = O=C(CN1CCN2CCN3CCN(CC1)CC(=O)[O][Lu]([O]C(=O)C2)[O]C(=O)C3)NCC1CCC(C(=O)*)CC1; X12 = O=C1CN2CCN3CCN(CC(=O)N4CCC(CC(=O)*)CC4)CCN(CC2)CC(=O)[O][Lu]([O]1)[O]C(=O)C3; X24 = O=C1CN2CCN3CCN(CC(=O)N4CC(CC(=O)*)C4)CCN(CC2)CC(=O)[O][Lu]([O]1)[O]C(=O)C3; X9 = O=C1CN2CCN3CCN(CC(=O)N4CC(C(=O)*)C4)CCN(CC2)CC(=O)[O][Lu]([O]1)[O]C(=O)C3; DOTA(Lu) = O=C1CN2CCN3CCN(CC(=O)*)CCN(CC2)CC(=O)[O][Lu]([O]1)[O]C(=O)C3; X7 = O=C1CN2CCN3CCN(CC2)[C@H](CCC(=O)*)C(=O)[O][Ga]([O]1)[O]C(=O)C3; Ala(piperidin-4-yl) = O=C([C@H](CC1CCN([*:3])CC1)N[*:1])[*:2]; dTrp(βS-Me) = C[C@@H](c1c[nH]c2ccccc12)[C@@H](N)C(=O)O; X11 = O=C1CN2CCN(CCN(CC(=O)*)CC2)CC(=O)[O][Ga+][O]1; X8 = O=C([C@@H](Cc1n[nH]c2ccccc12)N[*:1])[*:2]; Trx = NC[C@H]1CC[C@H](C(=O)O)CC1; NMeK = CN[C@@H](CCCCN)C(=O)O
These compounds were tested against SSTR2 (Homo sapiens, UniProt P30874) (assay: SSTR binding affinity by radioligand binding competition assay ([125I]-Tyr11-Somatostatin, membrane extracts)). Settings: radioligand competition, [125I]-Tyr11-Somatostatin 0.1 nM, membrane extracts; Ki from IC50 by Cheng Prusoff; read-out: SSTR2 Ki.
Sequence of SSTR2 (P30874 whole entry): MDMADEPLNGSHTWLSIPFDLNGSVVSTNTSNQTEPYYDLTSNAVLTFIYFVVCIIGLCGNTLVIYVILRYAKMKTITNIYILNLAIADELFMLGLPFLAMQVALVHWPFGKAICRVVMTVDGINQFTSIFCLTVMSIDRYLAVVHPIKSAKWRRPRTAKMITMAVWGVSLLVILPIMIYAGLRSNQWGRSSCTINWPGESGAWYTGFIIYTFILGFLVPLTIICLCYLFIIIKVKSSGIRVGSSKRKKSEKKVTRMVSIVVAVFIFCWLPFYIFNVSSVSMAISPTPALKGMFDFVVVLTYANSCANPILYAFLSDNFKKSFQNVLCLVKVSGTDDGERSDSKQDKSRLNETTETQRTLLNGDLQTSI

| Structure (SMILES) | Ki |
| --- | --- |
| C[C@@H](O)[C@@H]1NC(=O)[C@H](CC2CCNCC2)NC(=O)[C@@H]([C@@H](C)c2c[nH]c3ccccc23)NC(=O)[C@H](Cc2ccc(O)cc2)NC(=O)[C@H](CCCCNC(=O)C2CN(C(=O)CN3CCN4CCN5CCN(CC3)CC(=O)[O][Lu]([O]C(=O)C5)[O]C(=O)C4)C2)N(C)C(=O)[C@H](Cc2ccccc2)NC1=O [RB-0006455] (cyclo(F[NMeK](X9)Y[dTrp(βS-Me)][Ala(piperidin-4-yl)]T)) | 1 to 3.33 nM |
| C[C@@H](O)[C@@H]1NC(=O)[C@H](CC2CCNCC2)NC(=O)[C@@H]([C@@H](C)c2c[nH]c3ccccc23)NC(=O)[C@H](Cc2ccc(O)cc2)NC(=O)[C@H](CCCCNC(=O)CC2CCN(C(=O)CN3CCN4CCN5CCN(CC3)CC(=O)[O][Lu]([O]C(=O)C5)[O]C(=O)C4)CC2)N(C)C(=O)[C@H](Cc2ccccc2)NC1=O [RB-0006458] (cyclo(F[NMeK](X12)Y[dTrp(βS-Me)][Ala(piperidin-4-yl)]T)) | 3.33 to 10 nM |
| C[C@@H](O)[C@@H]1NC(=O)[C@H](CC2CCNCC2)NC(=O)[C@@H]([C@@H](C)c2c[nH]c3ccccc23)NC(=O)[C@H](Cc2ccc(O)cc2)NC(=O)[C@H](CCCCNC(=O)CC2CN(C(=O)CN3CCN4CCN5CCN(CC3)CC(=O)[O][Lu]([O]C(=O)C5)[O]C(=O)C4)C2)N(C)C(=O)[C@H](Cc2ccccc2)NC1=O [RB-0006461] (cyclo(F[NMeK](X24)Y[dTrp(βS-Me)][Ala(piperidin-4-yl)]T)) | 3.33 to 10 nM |
| C[C@@H](O)[C@@H]1NC(=O)[C@H](CC2CCNCC2)NC(=O)[C@@H]([C@@H](C)c2c[nH]c3ccccc23)NC(=O)[C@H](Cc2ccc(O)cc2)NC(=O)[C@H](CCCCNC(=O)C2CCC(CNC(=O)CN3CCN4CCN5CCN(CC3)CC(=O)[O][Lu]([O]C(=O)C4)[O]C(=O)C5)CC2)N(C)C(=O)[C@H](Cc2ccccc2)NC1=O (some centres unmarked) [RB-0006464] (cyclo(F[NMeK](X14)Y[dTrp(βS-Me)][Ala(piperidin-4-yl)]T)) | 1 to 3.33 nM |
| C[C@@H](O)[C@@H]1NC(=O)[C@H](CC2CCNCC2)NC(=O)[C@@H]([C@@H](C)c2c[nH]c3ccccc23)NC(=O)[C@H](Cc2ccc(O)cc2)NC(=O)[C@H](CCCCNC(=O)[C@H]2CC[C@H](CNC(=O)CC[C@@H]3C(=O)[O][Ga]4[O]C(=O)CN5CCN(CCN3CC5)CC(=O)[O]4)CC2)N(C)C(=O)[C@H](Cc2ccccc2)NC1=O [RB-0006470] (cyclo(F[NMeK]([Trx-X7])Y[dTrp(βS-Me)][Ala(piperidin-4-yl)]T)) | 1 to 3.33 nM |
| C[C@@H](O)[C@@H]1NC(=O)[C@H](CC2CCNCC2)NC(=O)[C@@H]([C@@H](C)c2c[nH]c3ccccc23)NC(=O)[C@H](Cc2ccc(O)cc2)NC(=O)[C@H](CCCCNC(=O)CCC2C(=O)[O][Ga]3[O]C(=O)CN4CCN(CCN2CC4)CC(=O)[O]3)N(C)C(=O)[C@H](Cc2ccccc2)NC1=O (some centres unmarked) [RB-0006476] | 3.33 to 10 nM |
| C[C@@H](O)[C@@H]1NC(=O)[C@H](CC2CCNCC2)NC(=O)[C@@H]([C@@H](C)c2c[nH]c3ccccc23)NC(=O)[C@H](Cc2ccc(O)cc2)NC(=O)[C@H](CCCCNC(=O)CN2CCN3CCN(CC2)CC(=O)[O][Ga+][O]C(=O)C3)N(C)C(=O)[C@H](Cc2ccccc2)NC1=O [RB-0006488] (cyclo(F[NMeK](X11)Y[dTrp(βS-Me)][Ala(piperidin-4-yl)]T)) | 1 to 3.33 nM |
| C[C@@H](O)[C@@H]1NC(=O)[C@H](CC2CCNCC2)NC(=O)[C@@H](Cc2n[nH]c3ccccc23)NC(=O)[C@H](Cc2ccc(O)cc2)NC(=O)[C@H](CCCCNC(=O)CN2CCN3CCN4CCN(CC2)CC(=O)[O][Lu]([O]C(=O)C3)[O]C(=O)C4)N(C)C(=O)[C@H](Cc2ccccc2)NC1=O [RB-0006553] (cyclo(F[NMeK](DOTA(Lu))Y[X8][Ala(piperidin-4-yl)]T)) | 10 to 33.3 nM |

From patent publication US20250222146A1, “Radiopharmaceuticals Targeting Somatostatin Receptor 2 and Uses Thereof” (RayzeBio, Inc., priority 2023, published 2025)
